Source: ChEMBL document CHEMBL1153371, “Antiseizure activity of novel gamma-aminobutyric acid (A) receptor subtype-selective benzodiazepine analogues in mice and rat models” (J Med Chem, 2009)
The source made the active and inactive calls. No cut-off for these calls is given here.

Tests used:
[1] = Toxicity in po dosed rat assessed as minimal muscular or neurological impairment by rotarod paradigm test; assay type: organism-based; conditions: in vivo
[2] = test system: Rattus norvegicus; experiment: Anticonvulsant activity in po dosed rat assessed as protection against maximal electroshock-induced seizure; assay type: functional
[3] = test system: Mus musculus; experiment: Anticonvulsant activity in ip dosed mouse assessed as protection against subcutaneous metrazole-induced seizure; assay type: functional
[4] = Therapeutic index, ratio of TD50 for po dosed rat to ED50 for protection against subcutaneous metrazole-induced seizure in po dosed rat; assay type: organism-based; conditions: in vivo, read-out: Ratio TD50/ED50
[5] = test system: Rattus norvegicus; experiment: Anticonvulsant activity in po dosed rat assessed as protection against subcutaneous metrazole-induced seizure; assay type: functional
[6] = Therapeutic index, ratio of TD50 for ip dosed mouse to ED50 for protection against subcutaneous metrazole-induced seizure in ip dosed mouse; assay type: organism-based; conditions: in vivo, read-out: Ratio TD50/ED50
[7] = test system: Mus musculus; experiment: Anticonvulsant activity in ip dosed mouse assessed as protection against maximal electroshock-induced seizure; assay type: functional
[8] = test system: Rattus norvegicus; experiment: Toxicity in rat assessed as motor impairment at 50 mg/kg, ip after 4 hrs by rotarod paradigm test; assay type: organism-based; set-up: dose 50 mg/kg, route intraperitoneal; conditions: in vivo
[9] = test system: Rattus norvegicus; experiment: Toxicity in rat assessed as motor impairment at 50 mg/kg, ip after 0.5 hrs by rotarod paradigm test; assay type: organism-based; set-up: dose 50 mg/kg, route intraperitoneal; conditions: in vivo
[10] = test system: Rattus norvegicus; experiment: Toxicity in rat assessed as motor impairment at 50 mg/kg, po after 1 hr by rotarod paradigm test; assay type: organism-based; set-up: dose 50 mg/kg, route oral; conditions: in vivo
[11] = test system: Rattus norvegicus; experiment: Anticonvulsant activity in rat assessed as protection against subcutaneous metrazole-induced seizure at 50 mg/kg, ip after 4 hrs; assay type: functional
[12] = test system: Rattus norvegicus; experiment: Toxicity in rat assessed as motor impairment at 50 mg/kg, po after 0.5 hrs by rotarod paradigm test; assay type: organism-based; set-up: dose 50 mg/kg, route oral; conditions: in vivo
[13] = test system: Rattus norvegicus; experiment: Anticonvulsant activity in rat assessed as protection against subcutaneous metrazole-induced seizure at 50 mg/kg, ip after 0.5 hrs; assay type: functional
[14] = test system: Rattus norvegicus; experiment: Anticonvulsant activity in rat assessed as protection against subcutaneous metrazole-induced seizure at 15 mg/kg, po after 4 hrs; assay type: functional
[15] = test system: Rattus norvegicus; experiment: Anticonvulsant activity against kindle motor-induced seizure in rat assessed as after discharge duration at 10 mg/kg, ip by hippocampal kindling screen test; assay type: functional, Hippocampus; conditions: route intraperitoneal
[16] = test system: Rattus norvegicus; experiment: Anticonvulsant activity in rat assessed as blockade against kindle motor-induced seizure at 10 mg/kg, ip by hippocampal kindling screen test; assay type: functional, organism-based; set-up: dose 10 mg/kg; conditions: Hippocampus
[17] = test system: Rattus norvegicus; experiment: Toxicity in rat assessed as motor impairment at 3 mg/kg, ip after 1 hr by rotarod paradigm test; assay type: organism-based; set-up: dose 3 mg/kg, route intraperitoneal; conditions: in vivo
[18] = test system: Rattus norvegicus; experiment: Anticonvulsant activity in rat assessed as protection against subcutaneous metrazole-induced seizure at 50 mg/kg, po after 0.5 hrs; assay type: functional
[19] = test system: Rattus norvegicus; experiment: Toxicity in rat assessed as motor impairment at 50 mg/kg, po after 4 hrs by rotarod paradigm test; assay type: organism-based; set-up: dose 50 mg/kg, route oral; conditions: in vivo
[20] = test system: Rattus norvegicus; experiment: Anticonvulsant activity in rat assessed as protection against maximal electroshock-induced seizure at 30 mg/kg, ip and po after 4 hrs; assay type: functional, organism-based; set-up: dose 30 mg/kg
[21] = test system: Rattus norvegicus; experiment: Anticonvulsant activity in rat assessed as protection against maximal electroshock-induced seizure at 30 mg/kg, ip and po after 0.5 hrs; assay type: functional, organism-based; set-up: dose 30 mg/kg
[22] = test system: Rattus norvegicus; experiment: Anticonvulsant activity in rat assessed as protection against subcutaneous metrazole-induced seizure at 50 mg/kg, po after 4 hrs; assay type: functional, organism-based; set-up: dose 50 mg/kg
[23] = test system: Rattus norvegicus; experiment: Anticonvulsant activity against kindle motor-induced seizure in rat assessed as after discharge duration at 50 mg/kg, ip by hippocampal kindling screen test; assay type: functional, Hippocampus; conditions: route intraperitoneal
[24] = test system: Rattus norvegicus; experiment: Toxicity in rat assessed as motor impairment at 30 mg/kg, ip after 1 hr by rotarod paradigm test; assay type: organism-based; set-up: dose 30 mg/kg, route intraperitoneal; conditions: in vivo
[25] = molecular target: GABA-A receptor; alpha-5/beta-3/gamma-2 (Homo sapiens) (UniProt P18507+P28472+P31644); experiment: Activity at GABAA alpha-5-beta-3-gamma-2 receptor expressed in oocytes assessed as stimulation of GABA-induced current at 1 uM relative to control; assay type: cell-based; conditions: Oocyte
[26] = Toxicity in ip dosed mouse assessed as minimal muscular or neurological impairment by rotarod paradigm test; assay type: organism-based; conditions: in vivo
[27] = molecular target: GABA-A receptor; alpha-2/beta-3/gamma-2 (Homo sapiens) (UniProt P18507+P28472+P47869); experiment: Activity at GABAA alpha-2-beta-3-gamma-2 receptor expressed in oocytes assessed as stimulation of GABA-induced current at 1 uM relative to control; assay type: cell-based; conditions: Oocyte
[28] = molecular target: GABA-A receptor; alpha-1/beta-3/gamma-2 (Homo sapiens) (UniProt P14867+P18507+P28472); experiment: Activity at GABAA alpha-1-beta-3-gamma-2 receptor expressed in oocytes assessed as stimulation of GABA-induced current at 1 uM relative to control; assay type: cell-based; conditions: Oocyte
[29] = test system: Rattus norvegicus; experiment: Anticonvulsant activity in rat assessed as blockade against kindle motor-induced seizure at 50 mg/kg, ip by hippocampal kindling screen test; assay type: functional, organism-based; set-up: dose 50 mg/kg; conditions: Hippocampus
[30] = molecular target: T1, Gamma-aminobutyric acid receptor subunit alpha-3 (Homo sapiens) (UniProt P34903); experiment: Activity at GABAA alpha-3-beta-3-gamma-2 receptor expressed in oocytes assessed as stimulation of GABA-induced current at 1 uM relative to control; assay type: cell-based; conditions: Oocyte
T1 sequence (whole entry): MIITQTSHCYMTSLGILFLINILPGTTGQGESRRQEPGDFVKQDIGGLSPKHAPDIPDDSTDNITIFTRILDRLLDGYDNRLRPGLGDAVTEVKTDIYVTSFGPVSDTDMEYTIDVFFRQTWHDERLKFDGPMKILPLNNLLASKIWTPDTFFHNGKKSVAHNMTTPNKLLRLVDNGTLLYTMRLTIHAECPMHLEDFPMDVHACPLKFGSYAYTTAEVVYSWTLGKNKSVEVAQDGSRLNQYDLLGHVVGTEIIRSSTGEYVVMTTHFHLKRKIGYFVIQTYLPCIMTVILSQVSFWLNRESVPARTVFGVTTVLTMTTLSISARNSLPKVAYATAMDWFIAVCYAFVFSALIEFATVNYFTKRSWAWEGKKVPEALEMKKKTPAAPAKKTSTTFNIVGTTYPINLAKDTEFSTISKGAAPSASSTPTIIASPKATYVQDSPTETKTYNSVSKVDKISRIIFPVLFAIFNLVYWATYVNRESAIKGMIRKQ

[31] = test system: Mus musculus; experiment: Anticonvulsant activity in mouse assessed as protection against maximal electroshock-induced seizure at 100 mg/kg, ip after 4 hrs; assay type: functional, organism-based; set-up: dose 100 mg/kg
[32] = test system: Mus musculus; experiment: Anticonvulsant activity in mouse assessed as protection against subcutaneous metrazole-induced seizure at 100 mg/kg, ip after 4 hrs; assay type: functional, organism-based; set-up: dose 100 mg/kg
[33] = test system: Rattus norvegicus; experiment: Toxicity in rat assessed as motor impairment at 50 mg/kg, ip after 1 hr by rotarod paradigm test; assay type: organism-based; set-up: dose 50 mg/kg, route intraperitoneal; conditions: in vivo
[34] = test system: Rattus norvegicus; experiment: Anticonvulsant activity in rat assessed as blockade against kindle motor-induced seizure at 100 mg/kg, ip by hippocampal kindling screen test; assay type: functional, organism-based; set-up: dose 100 mg/kg; conditions: Hippocampus
[35] = test system: Rattus norvegicus; experiment: Anticonvulsant activity against kindle motor-induced seizure in rat assessed as after discharge duration at 100 mg/kg, ip by hippocampal kindling screen test; assay type: functional, Hippocampus; conditions: route intraperitoneal
[36] = test system: Mus musculus; experiment: Anticonvulsant activity in mouse assessed as protection against maximal electroshock-induced seizure at 100 mg/kg, ip after 0.5 hrs; assay type: functional, organism-based; set-up: dose 100 mg/kg
[37] = test system: Mus musculus; experiment: Toxicity in mouse assessed as motor impairment at 100 mg/kg, ip after 4 hrs by rotarod paradigm test; assay type: organism-based; set-up: dose 100 mg/kg, route intraperitoneal; conditions: in vivo
[38] = test system: Rattus norvegicus; experiment: Toxicity in rat assessed as sedative effect at 500 mg/kg, po; assay type: organism-based; set-up: dose 500 mg/kg, route oral; conditions: in vivo
[39] = test system: Mus musculus; experiment: Toxicity in mouse assessed as motor impairment at 100 mg/kg, ip after 0.5 hrs by rotarod paradigm test; assay type: organism-based; set-up: dose 100 mg/kg, route intraperitoneal; conditions: in vivo

Compound	TD50 [1] [mg/kg]	ED50 [2] [mg/kg]	ED50 [3] [mg/kg]	selectivity ratio [4]	ED50 [5] [mg/kg]	selectivity ratio [6]	ED50 [7] [mg/kg]	Activity [9]	Activity [25] [%]	TD50 [26] [mg/kg]	Activity [27] [%]	Activity [28] [%]	Activity [30] [%]	further results
O=C1NC(=O)C(c2ccccc2)(c2ccccc2)N1 [PHENYTOIN]	> 1000	28.1	> 50	2	> 500	< 0.82	5.64							
CCOC(=O)c1ncn2c1CN=C(c1ccccc1F)c1cc(I)ccc1-2								Non-toxic						Activity [8]: Non-toxic; Activity [10]: Non-toxic; Activity [11]: inactive; Activity [12]: Non-toxic; Activity [13]: inactive
NC(=O)N1c2ccccc2C=Cc2ccccc21 [CARBAMAZEPINE]		5.35	> 50		> 250		7.81							
C#Cc1ccc2c(c1)C(c1ccccc1Cl)=NCc1nnc(C)n1-2		> 150	1.03	> 105	1.58	2.8	> 6							Activity [14]: 50%; Activity [15]: 92 s; Activity [16]: Active; Activity [17]: Non-toxic; Activity [18]: Active; Activity [19]: Non-toxic; Activity [20]: inactive; Activity [12]: Non-toxic; Activity [21]: inactive
C#Cc1ccc2c(c1)C(c1ccccc1F)=NCc1c(C(=O)OCC)ncn1-2	> 500	> 250	8.87	> 21.1	23.7	> 44	> 200	Non-toxic	246	> 400	410	248	596	Activity [22]: Active; Activity [23]: 38 s; Activity [8]: Non-toxic; Activity [24]: Non-toxic; Activity [29]: Active; Activity [21]: inactive
O=C1CN=C(c2ccccc2Cl)c2cc([N+](=O)[O-])ccc2N1 [CLONAZEPAM]	2.38	7.86	0.02	3.9	0.61	13	25.6			0.26				
C#Cc1ccc2c(c1)C(c1ccccn1)=NCc1c(C(=O)OCC)ncn1-2	> 500	> 250	16.3	> 5	98.5	> 30.2	> 300	Non-toxic	174	> 500	313	167	346	Activity [31]: inactive; Activity [32]: inactive; Activity [24]: Non-toxic; Activity [11]: 63%; Activity [33]: Non-toxic; Activity [34]: Active; Activity [35]: 59 s; Activity [36]: inactive; Activity [37]: Non-toxic; Activity [18]: 100%; Activity [20]: inactive; Activity [38]: Non-toxic; Activity [39]: Non-toxic; Activity [13]: 88%
CN1C(=O)CN=C(c2ccccc2)c2cc(Cl)ccc21									420		508	345	776	
